What was measured:
[1] = tested on: 5TGM1 mouse myeloma cells; experiment: 5TGM1 murine multiple myeloma model, study 1: bone lesions and tumor burden; type: in vivo; settings: for bone protective properties/effects: cabozantinib 10 or 30 mg/kg PO QD; for frequency of soft tissue lesions: cabozantinib both doses (10 and 30 mg/kg PO QD)
Method: Cabozantinib (XL184) is obtained from the Exelixis in powder form. It is dissolved in sterile water to a concentration of 1 mg/ml for dosing at 10 mg/kg or 30 mg/kg. The dosing solution is prepared daily within one hour before dosing. The undissolved test compound will be stored at ambient or room temperature in a dry environment such as in a dessicator. The test compound is administered daily by oral gavage. Bortezomib is obtained from LC Laboratories (Boston, Mass., USA) in powder form and dissolved in EtOH. The stock solution is stored at -20° C. The bortezomib dosing solutions are prepared fresh for every dosing as follows: 25 μl of the stock solution of 25 mg/ml of bortezomib (LC Laboratories, Boston, Mass., USA) in EtOH and 25 μl of EtOH is diluted in 3.61 ml of 0.9% NaCl to obtain the concentration of 0.17 mg/ml. The dosing volume is 3 ml/kg, resulting in the dose 0.5 mg/kg. Bortezomib is administered intraperitoneally twice a week. 5TGM1 mouse multiple myeloma cells are obtained from the Department of Molecular Medicine, University of Texas Health Science Center at San Antonio. Cell culturing is performed according to standard procedures. 5TGM1 mouse myeloma cells (2×10^6 cells in 0.1 ml of PBS) are inoculated into the tail vein of the mice at day 0. Viability of the cells will be determined before and after the inoculations. Cancer cell inoculation will cause the mice to develop a bone disease typical for multiple myeloma. Blood samples will be collected from the saphenous vein before the inoculation of cancer cells, at days 15, 22, 35 and at sacrifice. The serum samples will be prepared within one hour of sampling, and stored at -70° C. Serum paraprotein IgG2b will be analyzed using mouse IgG2b ELISA quantitation kit (Bethyl Laboratories Inc, Montgomery, Tex., USA). Serum […] activity and PINP concentration will be analyzed using Mouse TRAP and Mouse PINP kits (IDS, Boldon, UK). The development of the myeloma bone disease is monitored by x-ray radiography at day 35. Animals will be anesthethized by isoflurane and x-rayed in a prone position with the Faxitron Specimen Radiographic System MX-20 D12 (Faxitron Corp. Illinois, USA) using Faxitron Dicom 3.0-software. At least one radiograph (both hind limbs) per animal will be taken on each x-ray occasion (31 kV, 10 seconds, magnification 2×). The lesion number and lesion area in hind limbs will be determined from the images with MetaMorph image analysis software. Statistical analysis will be performed with statistical software R (version 2.14.0 or newer, www.r-project.org) or OriginPro (version 8.6 or newer, OriginLab, Northampton, Mass., USA). The mean and standard deviation of each parameter will be determined. All statistical analyses will be performed as two-sided tests. Normal distribution and homogeneity of variance will be checked before further analyses. In case of violating these assumptions, either log transformation or other appropriate transformation (e.g. square root, reciprocal) will be applied. If the assumptions are fulfilled as such or after transformation, Oneway ANOVA will be used for end-point parameters to assess whether the values obtained between groups are statistically different (with p<0.05) followed by Tukey test for comparison against the control group. If the assumptions are not fulfilled even after the transformations described above, rank-transformation will be applied and the non-parametric Kruskal-Wallis test followed by Mann-Whitney U-test will be used. Linear mixed effects model will be used for repeated measurements like biochemical markers. Female C57BL/KaLwRij mice were allocated to treatment groups (n=15 per group) with equivalent average body weights. Four experimental groups were utilized in each of 2 studies: a vehicle control group, and groups receiving single agent bortezomib (0.5 mg/kg ip twice a week) or cabozantinib (10 mg/kg, PO QD). […]

[2] = tested on: 5TGM1 mouse myeloma cells; experiment: 5TGM1 murine multiple myeloma model, study 2: overall survival, alone or in combination; type: in vivo; settings: for prolongation of overall survival (OS) compared to vehicle, statistical significance / median survival time: bortezomib 0.5 mg/kg ip twice a week, cabozantinib 10 mg/kg PO QD; for median survival time: vehicle 36 d, FIG. 1
Method: Cabozantinib (XL184) is obtained from the Exelixis in powder form. It is dissolved in sterile water to a concentration of 1 mg/ml for dosing at 10 mg/kg or 30 mg/kg. The dosing solution is prepared daily within one hour before dosing. The undissolved test compound will be stored at ambient or room temperature in a dry environment such as in a dessicator. The test compound is administered daily by oral gavage.
Bortezomib is obtained from LC Laboratories (Boston, Mass., USA) in powder form and dissolved in EtOH. The stock solution is stored at −20° C. The bortezomib dosing solutions are prepared fresh for every dosing as follows: 25 μl of the stock solution of 25 mg/ml of bortezomib (LC Laboratories, Boston, Mass., USA) in EtOH and 25 μl of EtOH is diluted in 3.61 ml of 0.9% NaCl to obtain the concentration of 0.17 mg/ml. The dosing volume is 3 ml/kg, resulting in the dose 0.5 mg/kg. Bortezomib is administered intraperitoneally twice a week.
5TGM1 mouse multiple myeloma cells are obtained from the Department of Molecular Medicine, University of Texas Health Science Center at San Antonio. Cell culturing is performed according to standard procedures. 5TGM1 mouse myeloma cells (2×10^6 cells in 0.1 ml of PBS) are inoculated into the tail vein of the mice at day 0. Viability of the cells will be determined before and after the inoculations. Cancer cell inoculation will cause the mice to develop a bone disease typical for multiple myeloma.
Statistical analysis will be performed with statistical software R (version 2.14.0 or newer, www.r-project.org) or OriginPro (version 8.6 or newer, OriginLab, Northampton, Mass., USA). The mean and standard deviation of each parameter will be determined. All statistical analyses will be performed as two-sided tests. Normal distribution and homogeneity of variance will be checked before further analyses. In case of violating these assumptions, either log transformation or other appropriate transformation (e.g. square root, reciprocal) will be applied. If the assumptions are fulfilled as such or after transformation, Oneway ANOVA will be used for end-point parameters to assess whether the values obtained between groups are statistically different (with p<0.05) followed by Tukey test for comparison against the control group. If the assumptions are not fulfilled even after the transformations described above, rank-transformation will be applied and the non-parametric Kruskal-Wallis test followed by Mann-Whitney U-test will be used. Linear mixed effects model will be used for repeated measurements like biochemical markers.
Female C57BL/KaLwRij mice were allocated to treatment groups (n=15 per group) with equivalent average body weights. Four experimental groups were utilized in each of 2 studies: a vehicle control group, and groups receiving single agent bortezomib (0.5 mg/kg ip twice a week) or cabozantinib (10 mg/kg, PO QD). Study 1 also included a higher dose cabozantinib group (30 mg/kg, PO QD), and study 2 included a combination group: bortezomib (0.5 mg/kg ip twice a week) plus cabozantinib (10 mg/kg, PO QD). […]
On day 0, animals were inoculated with 5TGM1 mouse myeloma cells by IV administration. […] Body weights were determined twice a week and blood samples were collected on days—1, 15, 22, and 34 for analysis of paraprotein (IgG2b) and TRACP 5b. In study 1 the development of osteolytic lesions was detected by radiography at the end of the study. […]

[3] = study 1, 30 mg/kg PO QD, radiography at end of study
[4] = study 1, bortezomib 0.5 mg/kg ip twice a week
[5] = study 1, both the 10 and 30 mg/kg doses PO QD

SMILES | bone-protective and anti-tumor effects (conclusion) ([1]; murine model of MM, conclusions) | mean area of osteolytic lesions [1, 3] | total area of osteolytic lesions [1, 3] | necrotic tumor area in bone ([1]; study 1, 10 and 30 mg/kg PO QD) | bone protective properties/effects [1, 4] | frequency of soft tissue lesions [1, 4] | start of the rise in serum IgG2b ([1]; study 1, both cabozantinib-treated groups (10 and 30 mg/kg), vs vehicle control) | relative IgG2b at sacrifice ([1]; study 1, both cabozantinib-treated groups, vs vehicle control) | osteoclast counts at the tumor-bone interface [1, 5] | serum TRACP 5b values [1, 5] | relative bone area ([1]; study 1, histomorphometry, vs control) | prolongation of overall survival (OS) compared to vehicle, statistical significance [2] | median survival time [2] [days] | prolongation of overall survival (conclusion, comparator not stated) ([2]; conclusions) | serum IgG2b levels ([1]; study 1, female C57BL/KaLwRij mice, bortezomib 0.5 mg/kg ip twice a week, vs vehicle)
COc1cc2nccc(Oc3ccc(NC(=O)C4(C(=O)Nc5ccc(F)cc5)CC4)cc3)c2cc1OC [cabozantinib, N-(4-{[6,7-bis(methyloxy)quinolin-4-yl]oxy}phenyl)-N′-(4-fluorophenyl)cyclopropane-1,1-dicarboxamide] | showed both bone-protective and anti-tumor effects | reduced | reduced | dose dependently increased | exhibited bone protective effects | decreased | started earlier than vehicle control | a significant difference was not observed | reduced | reduced | did not differ from control | statistically significant | 48 | statistically-significant prolongation | –
CC(C)C[C@H](NC(=O)[C@H](Cc1ccccc1)NC(=O)c1cnccn1)B(O)O [bortezomib, reference compound] | – | – | – | – | did not show bone protective properties | decreased | – | – | – | – | – | not | 43 | – | reduced
